The results in this text go back to US6919350B2 (priority 1996, dated 2005).

Data set [1] has as its target T1, delta opioid receptor in the mouse vas deferens (Mus musculus, UniProt P32300).
T1 construct: Vasa deferentia were removed from mice; from tissue; host or cells: mouse vas deferens (isolated organ bath)
The data set can be described thus: Electrically stimulated mouse vas deferens, delta opioid agonist potency (ED50).

Data set [2] addresses T2, delta opioid receptor (Rattus norvegicus, UniProt P33533).
T2 construct: Rat (Sprague-Dawley) brain membranes were prepared; from tissue; host or cells: rat (Sprague-Dawley) brain membranes
The data set can be described thus: Delta receptor binding in rat brain membranes (Delta Receptor IC50). On the procedure:
The assay procedures used for such determinations of delta receptor activity are set out below.
Inhibition of receptor binding: Rat (Sprague-Dawley) brain membranes were prepared and binding assays were performed at 24° C. for 90 minutes as described by Chang, et al. (J. Biol. Chem. 254, 2610 (1979) and Mol. Pharmacol. 16, 91 (1979)) with a filtration method (GF/C filter). Delta receptor binding assays were performed with (^3H)-(+)-4-((α-R*)-α-((2S*,5R*)-4-Allyl-2,5-dimethyl-1-piperazinyl)-3-hydroxybenzyl)-N,N-diethylbenzamide (0.1 nM), having an activity of ˜48 Ci/mmole, or with ^3H-[D-Pen^2,D-Pen^5-(enkephalin)](^3H-DPDPE, 0.1 nM) having an activity of ˜50 Ci/mmole. Non-specific binding was determined in the presence of 1 mM of the unlabeled ligand. The potency of compounds in inhibiting the binding of (^3H)-(+)-4-((α-R*)-α-((2S*,5R*)-4-Allyl-2,5-dimethyl-1-piperazinyl)-3-hydroxy-benzyl)-N,N-diethylbenzamide or ^3H-DPDPE was determined as the concentration which reduced the binding of the labeled compounds by 50 percent (Delta Receptor IC50).

Data set [3] concerns the target T1, delta opioid receptor in the mouse vas deferens. Briefly: Antagonist potency (pA2, Schild analysis) in electrically stimulated mouse vas deferens. On the procedure:
In vitro bioassays: Vasa deferentia were removed from mice and suspended between platinum electrodes with 0.5 g of tension in organ bath chambers containing a modified Krebs' buffer of the following composition (millimolar): NaCl, 118; KCl, 4.75; CaCl2, 2.6; KH2PO4, 1.20; NaHCO3, 24.5; and glucose, 11. The buffer was saturated with 95% O2/5% CO2 and kept at 37° C. Tissues were stimulated at supramaximal voltage with 10 Hz pulse trains for 400 msec.; train interval 10 seconds; and 0.5 msec pulse duration. […] The ED50 values were extrapolated from curves showing the dose concentration plotted against the response (Lord, et al., Nature 267, 495, (1977)).

Data set [4] deals with rats. Briefly: Tail-pinch analgesia during alfenta infusion with delta agonist (Example 14). Type of data set: in vivo, rat. The note with it: continuous i.v. infusion of alfenta and i.v. bolus of various doses. Here is the method:
Analgesia was also assessed with a tail-pinch method at the same time points that blood was drawn.

Data set [5] relates to rats. The note with it: rat, in vivo, iv.
Data set [6] is described as follows: in vivo. The note with it: rat, iv.
The subject of data set [7] is rats. The data set can be described thus: animal or person. Type of data set: in vivo. The note with it: Rattus norvegicus, iv, read-out: ED50 to produce analgesia.
The mark [8] stands for this setting: inhibition of electrically induced muscle contractions, read-out: Mouse Vas Deferens ED50.
[9] abbreviates: rat brain membranes, radioligand 3H-[D-Pen2,D-Pen5]-(enkephalin) 0.1 nM, read-out: Delta Receptor IC50.
The mark [10] stands for this setting: blockade of inhibitory effect of [D-Ala2,D-Leu5] enkephalin (footnote b).

What is called melting point is the temperature, or range, at which the solid turns liquid. In general, Kb refers to the equilibrium dissociation constant of an antagonist, usually derived from a functional assay. A higher Kb goes with a less potent antagonist. As usually defined, the ED50 is the dose that gives a 50% effect, or the effect in half of the subjects.

“And” between values parts separate entries of the source, which are not always exact repeats. Equal entries are not always repeated. “Also recorded” adds a separate entry of the source. Where two headings read alike, the source gives them in different places.

T2 sequence (P33533 whole entry): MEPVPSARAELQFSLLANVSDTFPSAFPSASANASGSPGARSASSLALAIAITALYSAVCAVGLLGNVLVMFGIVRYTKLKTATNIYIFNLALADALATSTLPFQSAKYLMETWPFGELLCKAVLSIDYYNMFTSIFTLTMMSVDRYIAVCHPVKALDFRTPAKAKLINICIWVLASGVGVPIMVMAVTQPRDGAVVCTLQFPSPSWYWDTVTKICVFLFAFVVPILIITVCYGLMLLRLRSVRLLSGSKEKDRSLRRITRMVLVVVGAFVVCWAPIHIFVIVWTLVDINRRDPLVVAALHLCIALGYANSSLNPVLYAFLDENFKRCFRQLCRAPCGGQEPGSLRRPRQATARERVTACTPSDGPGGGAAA
T1 sequence (P32300 whole entry): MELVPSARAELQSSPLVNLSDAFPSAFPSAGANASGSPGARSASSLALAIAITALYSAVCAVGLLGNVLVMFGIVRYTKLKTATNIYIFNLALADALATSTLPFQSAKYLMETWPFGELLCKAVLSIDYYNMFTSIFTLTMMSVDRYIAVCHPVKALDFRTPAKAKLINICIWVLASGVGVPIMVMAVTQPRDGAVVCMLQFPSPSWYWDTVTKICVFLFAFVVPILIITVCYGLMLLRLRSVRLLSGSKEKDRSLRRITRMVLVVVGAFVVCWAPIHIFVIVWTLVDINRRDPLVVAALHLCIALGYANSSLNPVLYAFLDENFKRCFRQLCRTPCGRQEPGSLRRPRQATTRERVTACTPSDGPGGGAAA

Turning to “3-((αR)-α-((2S,5S)-4-Allyl-2,5-dimethyl-1-piperazinyl)benzyl)phenol and 3-((αS)-α-((2S,5S)-4-Allyl-2,5-dimethyl-1-piperazinyl)benzyl)phenol [Compound 9]”, the EC50 in data set [1] (setting [8]) came to 450 nM. Also, in data set [2] (setting [9]), the IC50 was 1.5 nM.

Take `C=CCN1[C@H](C)CN(C(c2ccc(C(=O)N(CC)CC)cc2)c2cccc(O)c2)C[C@@H]1C` (mixture of isomers) [Compound 23, (±)-cis-4-(α-(4-Allyl-3,5-dimethyl-1-piperazinyl)-3-hydroxybenzyl)-N,N-diethylbenzamide]: the EC50 in data set [1] (setting [8]) came out at 42 nM. In addition, the IC50 in data set [2] (setting [9]) turned out to be 3.3 nM.

Consider `C=CCN1C[C@H](C)N([C@@H](c2cccc(O)c2)c2cccc(C(N)=O)c2)C[C@H]1C` (relative stereo) [Compound 6, (±)-3-((αR*)-α-((2S*,5R*)-4-Allyl-2,5-dimethyl-1-piperazinyl)-3-hydroxybenzyl)-benzamide], for which the EC50 in data set [1] (setting [8]) worked out at 25 nM. In data set [2] (setting [9]), the IC50 was found to be 4 nM.

The compound `CCN(CC)C(=O)c1ccc([C@H](c2cccc(O)c2)N2C[C@H](C)N(C)C[C@H]2C)cc1` (relative stereo) [Compound 10, (±)-N,N-diethyl-4-((αR*)-3-hydroxy-α-((2R*,5S*)-2,4,5-trimethyl-1-piperazinyl)benzyl)benzamide] came in with a melting point of 220 to 221 °C. Further, in data set [1] (setting [8]), the EC50 stood at 90 nM. Further, the IC50 in data set [2] (setting [9]) was 1.1 nM.

In the case of `C/C=C\CN1[C@H](C)CN(C(c2ccc(C(=O)N(CC)CC)cc2)c2cccc(O)c2)C[C@@H]1C` (relative stereo) [Compound 17, cis-4-(α-(4-((Z)-2-butenyl)-3,5-dimethyl-1-piperazinyl)-3-hydroxybenzyl)-N,N-diethylbenzamide], in data set [3] (blockade of inhibitory effect of (±)-4-((α-R*)-α-((2S*,5R*)-4-allyl-2,5-dimethyl-1-piperazinyl)-3-hydroxybenzyl)-N,N-diethylbenzamide (footnote c)), the Kb was 6.31 nM. Further, in data set [2] (setting [9]), the IC50 was determined as 1.5 nM.

With `C=CCN1C[C@@H](C)N([C@H](c2ccc(S(C)(=O)=O)cc2)c2cccc(O)c2)C[C@@H]1C` (relative stereo) [Compound 18, (±)-3-((αR*)-α-((2R*,5S*)-4-allyl-2,5-dimethyl-1-piperazinyl)-4-(methylsulfonyl)benzyl)phenol], the EC50 in data set [1] (setting [8]) was determined as 250 nM. Besides, the IC50 in data set [2] (setting [9]) was determined as 1.3 nM.

For `C=CCN1C[C@@H](C)N([C@H](c2ccc(S(=O)(=O)N(C)C)cc2)c2cccc(O)c2)C[C@@H]1C` (relative stereo) [Compound 19, (±)-4-((αR*)-α-((2R*,5S*)-4-Allyl-2,5-dimethyl-1-piperazinyl)-3-hydroxybenzyl)-N,N-dimethylbenzenesulfonamide], in data set [1] (setting [8]), the EC50 is 37 nM. The IC50 in data set [2] (setting [9]) worked out at 2.6 nM.

In the case of `C=CCN1C[C@H](C)N([C@H](c2ccccc2)c2cccc(O)c2)C[C@H]1C` (relative stereo) [Compound 20, (±)-3-((αR*)-α-((2S*,5R*)-4-Allyl-2,5-dimethyl-1-piperazinyl)benzyl)phenol], in data set [1] (setting [8]), the EC50 amounted to 78 nM. Further, in data set [2] (setting [9]), the IC50 came out at 1.3 nM.

For `C=CCN1C[C@H](C)N([C@H](c2ccc(C(N)=O)cc2)c2cccc(O)c2)C[C@H]1C` (relative stereo) [Compound 21, (±)-4-((αR*)-α-((2S*,5R*)-4-Allyl-2,5-dimethyl-1-piperazinyl)-3-hydroxybenzyl)benzamide], in data set [1] (setting [8]), the EC50 came to 44 nM. Also, in data set [2] (setting [9]), the IC50 turned out to be 1.6 nM.

With `CCN(CC)C(=O)c1ccc([C@H](c2cccc(O)c2)N2C[C@H](C)NC[C@H]2C)cc1` (relative stereo) [Compound 22, (±)-4-((αR*)-α-((2R*,5S*)-2,5-Dimethyl-1-piperazinyl)-3-hydroxybenzyl)-N,N-diethylbenzamide], the EC50 in data set [1] (setting [8]) came out at 4400 nM. The IC50 in data set [2] (setting [9]) was found to be 0.7 nM.

In the case of `C=CCN1C[C@@H](C)N([C@H](c2ccc(C(=O)N(CC)CC)cc2)c2cccc(O)c2)C[C@H]1C` (stereo in doubt) [Compound 1, (−)-4-((αR)-α-((2R,5R)-4-allyl-2,5-dimethyl-1-piperazinyl)-3-hydroxybenzyl)-N,N-diethylbenzamide], the EC50 in data set [1] was 43 nM. In data set [2], this compound displayed an IC50 of 2 nM.

Consider `C=CCN1C[C@H](C)N([C@H](c2ccc(C(=O)N(CC)CC)cc2)c2cccc(O)c2)C[C@H]1C` [BW373U86, (+)-4-((αR)-α-((2S,5R)-4-allyl-2,5-dimethyl-1-piperazinyl)-3-hydroxybenzyl)-N,N-diethylbenzamide], for which the “effect on analgesia induced by alfenta (tail-pinch)” value in data set [4] is “did not significantly affect the analgesia”. Also, the “effect on alfenta-induced respiratory depression (blood pCO2)” value in data set [5] is reported as “dose dependently reduced the level of pCO2; also recorded: blocks the respiratory depression”.

For the compound `C=CCN1C[C@@H](C)N([C@@H](c2ccc(C(=O)N(CC)CC)cc2)c2cccc(O)c2)C[C@H]1C` [Compound 2, (−)-4-((αS)-α-((2R,5R)-4-Allyl-2,5-dimethyl-1-piperazinyl)-3-hydroxybenzyl)-N,N-diethylbenzamide], the IC50 in data set [2] came out at 1 nM.

As to `CCCN1C[C@@H](C)N([C@@H](c2ccc(C(=O)N(CC)CC)cc2)c2cccc(O)c2)C[C@H]1C` [Compound 4, (−)-4-((αS)-α-((2R,5R)-2,5-Dimethyl-4-propyl-1-piperazinyl)-3-hydroxybenzyl)-N,N-diethylbenzamide], the EC50 in data set [1] (setting [8]) is over 1000 nM.

As to `C=CCN1C[C@H](C)N([C@H](c2ccc(C(N)=O)cc2)c2cccc(O)c2)C[C@@H]1C` [Compound 5], the EC50 in data set [1] (setting [8]) is 260 nM. Further, the IC50 in data set [2] (setting [9]) was 1.6 nM.

Regarding `CCN(CC)C(=O)c1ccc([C@H](c2cccc(O)c2)N2C[C@@H](C)NC[C@H]2C)cc1` [Compound 7, N,N-Diethyl-4-((αR)-3-hydroxy-α-((2R,5R)-2,5-dimethyl-1-piperazinyl)benzyl)benzamide], the EC50 in data set [1] (setting [8]) is 560 nM. Moreover, the IC50 in data set [2] (setting [9]) turned out to be 1.1 nM.

For `C=CCN1C[C@H](C)N([C@H](c2ccc(C(=O)N(C)CC)cc2)c2cccc(O)c2)C[C@@H]1C` [Compound 8, 4-((αR)-α-((2S,5S)-4-Allyl-2,5-dimethyl-1-piperazinyl)-3-hydroxybenzyl)-N-ethyl-N-methylbenzamide], in data set [1] (setting [8]), the EC50 is 30 nM. In addition, the IC50 in data set [2] (setting [9]) was 0.86 nM.

As for `C[C@H]1CN([C@H](c2ccc(C(=O)N3CCCCC3)cc2)c2cccc(O)c2)[C@@H](C)CN1C` [Compound 12, 3-((αR)-4-(piperidinocarbonyl)-α-((2S,5S)-2,4,5-trimethyl-1-piperazinyl)benzyl)phenol], the EC50 in data set [1] (setting [8]) stood at 250 nM. In data set [2] (setting [9]), the IC50 is 1.2 nM.

On to `C[C@H]1CN([C@H](c2ccc(C(=O)N3CCCC3)cc2)c2cccc(O)c2)[C@@H](C)CN1C` [Compound 13, 3-((αR)-4-(1-pyrrolidinylcarbonyl)-α-((2S,5S)-2,4,5-trimethyl-1-piperazinyl)benzyl)phenol], for which the EC50 in data set [1] (setting [8]) was determined as 200 nM. Moreover, the IC50 in data set [2] (setting [9]) is 0.3 nM and 0.8 nM.

`CCN(CC)C(=O)c1ccc([C@@H](c2cccc(O)c2)N2C[C@H](C)N(C)C[C@@H]2C)cc1` [Compound 14, (+)N,N-Diethyl-4-(3-hydroxy-(αS)-α-((2S,5S)-2,4,5-trimethyl-1-piperazinyl)benzyl)-benzamide] had a Kb in data set [3] (setting [10]) of 79.4 nM. Moreover, in data set [2] (setting [9]), the IC50 is 2 nM.

`CCN(CC)C(=O)c1ccc([C@H](c2cccc(O)c2)N2C[C@@H](C)N(C)C[C@H]2C)cc1` [Compound 15, N,N-diethyl-4-(3-hydroxy-(αR)-α-((2R,5R)-2,4,5-trimethyl-1-piperazinyl)benzyl)benzamide]: in data set [2] (setting [9]), the IC50 worked out at 2.8 nM.

As for `CCN(C)C(=O)c1ccc([C@H](c2cccc(O)c2)N2C[C@H](C)N(C)C[C@@H]2C)cc1` [Compound 16, N-ethyl-4-((αR)-3-hydroxy-α-((2S,5S)-2,4,5-trimethyl-1-piperazinyl)benzyl)-N-methylbenzamide], the Kb in data set [3] (setting [10]) was 63.1 nM. Also, in data set [2] (setting [9]), the IC50 was found to be 3.1 nM.

As to `C=CCN1C[C@H](C)N([C@@H](c2cccc(O)c2)c2cccc(C(=O)N(C)c3cccc(F)c3)c2)C[C@H]1C` [Compound 3290W93], the 50% effective dose (ED50) in data set [6] was 2 mg/kg; in data set [7] it was 0.08 mg/kg.

Regarding “cis-4-(α-(3,5-Dimethyl-4-(methylallyl)-1-piperazinyl)-3-hydroxybenzyl)-N,N-diethylbenzamide [Compound 24]”, the EC50 in data set [1] (setting [8]) is 20 nM.
